In ChEMBL document CHEMBL1201862, “PubChem BioAssay data set” (2004):
Blank lines part the entries; values can stand above or below the compound they belong to. Active and inactive are the calls of the source.

Assays:
[1] = tested on: Salmon testes DNA; test: DNA intercalators displacing acridine orange, dose response, artefact control for KSHV LANA DNA-binding inhibitor project, biochemical, fluorescence polarization, cherry-picked samples, set 2 (AID 504727); design: species or system Salmonidae
[2] = target: T1, Estrogen receptor (Homo sapiens, UniProt P03372); test: potentiators of ERα–SRC-1 coactivator binding, dose response, biochemical, TR-FRET, ERα LBD (AID 737)
T1 sequence (P03372 whole entry): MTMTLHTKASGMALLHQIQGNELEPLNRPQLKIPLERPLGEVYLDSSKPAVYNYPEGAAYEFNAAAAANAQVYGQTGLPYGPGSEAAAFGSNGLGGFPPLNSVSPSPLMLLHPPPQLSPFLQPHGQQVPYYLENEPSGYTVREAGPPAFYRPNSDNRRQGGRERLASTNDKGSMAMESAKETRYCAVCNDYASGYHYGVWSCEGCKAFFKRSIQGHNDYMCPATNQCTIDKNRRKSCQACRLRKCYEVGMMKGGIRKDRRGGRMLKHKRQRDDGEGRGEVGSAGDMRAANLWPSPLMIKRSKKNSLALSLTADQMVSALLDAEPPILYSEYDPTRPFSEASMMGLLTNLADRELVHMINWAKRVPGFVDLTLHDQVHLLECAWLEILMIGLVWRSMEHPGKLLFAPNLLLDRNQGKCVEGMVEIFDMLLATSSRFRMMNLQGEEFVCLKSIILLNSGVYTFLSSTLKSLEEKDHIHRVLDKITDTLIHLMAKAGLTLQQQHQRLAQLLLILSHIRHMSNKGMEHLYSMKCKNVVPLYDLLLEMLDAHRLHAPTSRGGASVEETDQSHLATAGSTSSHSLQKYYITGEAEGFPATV

[3] = cytotoxicity in HPDE-C7 cells, cell-based, fluorescence, HTS (AID 430); assay type: functional; settings: Homo sapiens
[4] = cytotoxicity in KRAS-transformed pancreatic duct cells, primary screen, cell-based, fluorescence, HTS (AID 431); assay type: functional; settings: Homo sapiens;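 note: cell line used: HPDE-C7K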
[5] = target: Mothers against decapentaplegic homolog 3 (Homo sapiens, UniProt P84022); test: Smad3 binding inhibitors, lysate ELISA, dose response, cell lysate, secondary confirmation, chemiluminescent ELISA, HEK293 lysate (AID 1058); assay type: functional
[6] = target: T1, Estrogen receptor
[7] = target: Bcl-2-like protein 10 (Homo sapiens, UniProt Q9HD36); test: displacers of TR3 peptide from Bcl-B, primary screen, selectivity assay for Bfl-1 inhibitor project, biochemical, fluorescence polarization, FITC-TR3 peptide (AID 748);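 note: fluorescence polarization from a fluorescein-labelled TR3 peptide binding purified Bcl-B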
[8] = target: Polyadenylate-binding protein 1 (Homo sapiens, UniProt P11940); test: PABP poly(A) RNA binding inhibitors, primary screen, biochemical, fluorescence polarization, uHTS (AID 2014)
[9] = target: Eukaryotic translation initiation factor 4H (Homo sapiens, UniProt Q15056); test: human eIF4H binding inhibitors, primary screen, translation initiation inhibitor project, biochemical, uHTS, fluorescence polarization (AID 2012)
[10] = target: T1, Estrogen receptor; test: ERα–SRC-3 coactivator interaction inhibitors, confirmation, orthogonal assay, biochemical, ELISA, streptavidin-HRP readout (AID 1079)
[11] = target: T2, Alkaline phosphatase, tissue-nonspecific isozyme (Homo sapiens, UniProt P05186)
T2 sequence (P05186 whole entry): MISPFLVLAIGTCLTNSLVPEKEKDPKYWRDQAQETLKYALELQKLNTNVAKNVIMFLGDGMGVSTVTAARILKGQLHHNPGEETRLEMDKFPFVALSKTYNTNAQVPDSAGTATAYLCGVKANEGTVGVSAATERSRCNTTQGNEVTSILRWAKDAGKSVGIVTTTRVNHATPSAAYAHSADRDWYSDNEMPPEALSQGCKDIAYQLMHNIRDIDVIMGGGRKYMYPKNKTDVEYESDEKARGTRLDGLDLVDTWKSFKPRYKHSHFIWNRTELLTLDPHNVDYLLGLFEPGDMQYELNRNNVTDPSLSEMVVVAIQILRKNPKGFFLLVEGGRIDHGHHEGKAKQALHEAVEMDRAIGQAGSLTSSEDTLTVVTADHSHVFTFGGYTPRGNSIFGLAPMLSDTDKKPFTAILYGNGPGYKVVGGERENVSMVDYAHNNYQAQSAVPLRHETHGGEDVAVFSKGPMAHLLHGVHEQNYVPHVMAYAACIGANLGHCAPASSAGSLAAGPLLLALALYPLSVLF

Chain of Mothers against decapentaplegic homolog 3 (P84022 whole entry): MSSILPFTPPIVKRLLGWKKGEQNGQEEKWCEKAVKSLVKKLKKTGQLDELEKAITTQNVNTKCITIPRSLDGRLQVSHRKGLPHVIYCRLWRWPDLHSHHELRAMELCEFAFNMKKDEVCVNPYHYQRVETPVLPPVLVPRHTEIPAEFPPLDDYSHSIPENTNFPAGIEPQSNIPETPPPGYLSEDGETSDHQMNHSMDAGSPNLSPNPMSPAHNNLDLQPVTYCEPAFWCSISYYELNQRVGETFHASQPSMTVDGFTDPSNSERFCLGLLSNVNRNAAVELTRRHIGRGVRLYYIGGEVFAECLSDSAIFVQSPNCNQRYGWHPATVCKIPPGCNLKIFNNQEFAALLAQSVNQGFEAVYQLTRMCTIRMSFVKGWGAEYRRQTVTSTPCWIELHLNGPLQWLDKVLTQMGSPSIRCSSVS
Chain of Polyadenylate-binding protein 1 (P11940 whole entry): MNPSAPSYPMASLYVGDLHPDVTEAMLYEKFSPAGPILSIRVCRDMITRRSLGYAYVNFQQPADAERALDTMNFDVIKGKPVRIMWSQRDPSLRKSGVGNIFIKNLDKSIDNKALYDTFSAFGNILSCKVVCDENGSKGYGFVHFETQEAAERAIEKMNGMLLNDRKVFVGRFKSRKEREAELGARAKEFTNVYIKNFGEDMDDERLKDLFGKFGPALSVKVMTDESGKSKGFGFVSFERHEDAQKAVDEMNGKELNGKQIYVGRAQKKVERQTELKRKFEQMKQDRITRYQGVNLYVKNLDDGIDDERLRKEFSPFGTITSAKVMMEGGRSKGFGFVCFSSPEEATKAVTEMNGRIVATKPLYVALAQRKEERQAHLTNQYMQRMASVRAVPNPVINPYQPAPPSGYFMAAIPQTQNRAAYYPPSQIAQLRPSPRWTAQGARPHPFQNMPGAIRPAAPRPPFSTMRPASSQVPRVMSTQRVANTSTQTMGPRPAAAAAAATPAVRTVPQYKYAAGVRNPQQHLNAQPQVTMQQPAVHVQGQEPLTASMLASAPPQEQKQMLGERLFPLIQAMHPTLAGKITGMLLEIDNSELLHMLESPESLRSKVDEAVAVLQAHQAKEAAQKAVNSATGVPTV
Chain of Bcl-2-like protein 10 (Q9HD36 whole entry): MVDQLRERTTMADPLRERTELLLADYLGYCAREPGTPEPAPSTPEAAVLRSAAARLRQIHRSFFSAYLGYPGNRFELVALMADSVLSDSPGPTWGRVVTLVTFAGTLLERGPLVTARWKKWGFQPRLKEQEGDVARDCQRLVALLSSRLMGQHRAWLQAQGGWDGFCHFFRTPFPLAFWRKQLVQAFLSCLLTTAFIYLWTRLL

Structure (SMILES): CSc1nc(SC(C)C(=O)O)c2c3c(sc2n1)COC(C)(C)C3 (stereo unspecified)
AC50 [1]: 90.3 µM (active)

Structure (SMILES): CCC(=O)Oc1ccc(C(CC)C(CC)c2ccc(OC(=O)CC)cc2)cc1 (stereo unspecified)
EC50 [2]: 10.2 µM (active)
EC50 [3]: 9.19 µM (active)
EC50 [4]: 10.7 µM (active)

Structure (SMILES): CC1NC(C(=O)O)Cc2cc(O)c(O)cc21 (stereo unspecified)
IC50 [5]: > 50 µM (not active)

IC50 [6]: 24.9 µM (active)
IC50 [7]: 36.6 µM (active)
Structure (SMILES): CN(C)S(=O)(=O)N(CC(=O)N(Cc1ccccc1)Cc1ccccc1)c1ccccc1

Structure (SMILES): CCN1C(NCC(C)C)=N[C@@H](c2cccc(C(F)(F)F)c2)C(C(=O)OC)=C1C
IC50 [8]: 10 µM (active)
IC50 [9]: > 100 µM (inactive)

IC50 [10]: 0.05 µM (not active)
Structure (SMILES): O=C(CCCn1c(=S)[nH]c2ccccc2c1=O)N1CCC(c2ccccc2)CC1

EC50 [11]: > 100 µM (not active)
Structure (SMILES): Oc1ccccc1/C=N/Nc1cccc2cccnc12
